From US6745512B1 (priority 1990, dated 2004)

Test system: harmful organisms such as smut (Ustilago nuda), Fusaria and Septoria nodorum
Test: combined use of low energy electrons with subsequent fungicidal treatment of the seeds
Conditions: low energy electrons followed by fungicidal treatment of the seeds; 15 g, 30 g/100 kg seeds

For Cc1oc(C)c(C(=O)Nc2ccccc2)c1C [Methfuroxam], the harmful organisms combated was 95 to 100%.
